Measured values as given in paper PMC7395176, “Retromer stabilization results in neuroprotection in a model of Amyotrophic Lateral Sclerosis” (Nature Communications, 2020).

Key:
[1] = target: T1, VPS35 (Mus musculus, UniProt Q9EQH3+Q9QZ88); test: Western blot for VPS35 in spinal cord extracts of treated C57BL6J mice; format: in vivo; design: from tissue; host or cells: mouse (lumbar) spinal cord, motor neurons; conditions: 10 mg/Kg intraperitoneally daily, 1 week
Description: Compounds 2a, 4a, and standard R55/1 (10 mg/Kg) were intraperitoneally injected in C57BL6J mice daily. After 1 week, mice were sacrificed, saline perfused to avoid CNS contamination by compounds in blood circulation, and SC protein extracts were assayed by WB. […] Therefore, phenyl-1,3-bis-guanylhydrazone 2a was selected as an early lead.

[2] = target: T1, VPS35; conditions: Neuro2a cells, 10 µM, 48 h, WB
Description: Protein extracts were collected, separated by SDS-PAGE and immunoblotted for VPS35 and the housekeeping gene β-Actin.
Neuro2a cells (ATCC® CCL-131™) were seeded in Dulbecco’s modified Eagle’s media (DMEM, Gibco) supplemented with FBS 10% (Gibco), L-glutamine (Gibco) 2 mM and penicillin/streptomycin 1% (Gibco). Depending on the experimental setting, we used 6-well, 12-well or 96-well dishes. Neuro2a were grow at 37 °C in a humidified 5% CO2 atmosphere. All experiments were carried out at least in triplicate. Compounds and transfections were done on cells showing 60–70% of confluence. Compounds were usually kept on cells for 48 h; Bortezomib (BTZ) was used at 10 nM for 6 h to inhibit proteasome.
Protein lysates from cells cultures were collected from plates receiving PBS 1× washing and subsequently the lysis buffer followed by sonication. Protein concentrations were measured by BCA protein assay kit (Thermofisher) according to the manufacturer’s recommendations. Ten µg of protein extract was loaded on 10% Mini-PROTEAN TGX Stain-Free precast gels for PAGE (Bio-Rad). Gel electrophoresis was performed at 100 V for 2 h. Gels were transferred on Immobilon®-P PVDF membrane according to the manufacturer’s instructions (Millipore). Blots were blocked in 5% BSA in Tris buffered saline plus 0.1% Tween-20 (TBS-T) for 1 h before receiving primary antibodies: goat α-VPS35 1:800 (ab10099, Abcam); rabbit α-VPS26 1:1000 (ab23892 Abcam), rabbit α-VPS26b 1:1000 (15915-1-AP, ProteinTech); rabbit α-VPS29 1:1000 (ab236796 Abcam); mouse α-βActin 1:25000 (Sigma–Aldrich); mouse α-Golgin97 1:1000 (Invitrogen); mouse α-Ubiquitin 1:500 (Merk); rabbit α-CD14 1:1000 (Bioss Inc); mouse α-Tubulin 1:5000 (Immunological Sciences MAB-80143) overnight at 4 °C on shaker. Following several washes with TBS-T, blots were incubated in appropriate HRP-labeled secondary antibodies (Bio-Rad) for 1 h at room temperature. Visualization of protein bands was obtained using ClarityMax-ECL (Bio-Rad) according to the manufacturer’s instructions and images were acquired on ChemiDoc (Bio-Rad). Quantifications were done using the Image Lab 6.0.1 software (Bio-Rad).

[3] = system: APP processing; design: method as in PMID 24747528; conditions: neurons carrying pathogenic APP mutations; cited from earlier work
[4] = target: VPS29-VPS35 heterodimer (Homo sapiens, UniProt Q96QK1+Q9UBQ0); test: STD-NMR and WaterLogsy-NMR ligand-based binding experiments; conditions: STD- and WL-NMR competition experiments could not be performed
Description: We used a ligand-based NMR approach to localize the binding between compound 2a and the VPS29-VPS35 heterodimer. These techniques provide binding information without requiring any isotopic labeling of the proteins. Particularly, Saturation Transfer Difference NMR (STD-NMR)[32] and WaterLogsy-NMR (WL-NMR)[33] experiments were acquired in buffer solutions containing a large excess of compound 2a (500μM) with respect to VPS29-VPS35 (10 μM). Both STD-NMR and WL-NMR focus on the NMR signals of the ligand and utilize the magnetization transfer by the Nuclear Overhauser Effect (NOE) between protein and ligand. STD-NMR experiments are carried out by subtraction of a 1D ^1H spectrum where the protein protons are selectively irradiated (on-resonance spectrum) from a spectrum in which the protein is not saturated (off-resonance spectrum).
WL-NMR entails magnetization transfer to the ligand from either bulk water via a macromolecule, and/or the exchangeable protons and the water molecules present in the binding site. Positive peaks for proton resonances of the ligand in the WL-NMR spectrum are observed for binders in presence of the protein. […] As negative control, STD-NMR and WL-NMR experiments were performed for compound 2a in absence of the heterodimer. The absence of proton signals in the aromatic zone and the presence of negative signals in STD-NMR (Fig. 2k) and WL-NMR (Fig. 2l) spectra, respectively, confirms the binding between compound 2a and the VPS29-VPS35 heterodimer. Unfortunately, STD- and WL-NMR competition experiments between 2a and R55/1 could not be performed since the latter compound was not stable in our experimental conditions.
NMR spectra were acquired at 298K on a Bruker Avance NEO 700 MHz spectrometer equipped with a Z-gradient cryoprobe. The spectra were processed with the Bruker TOPSPIN 4.0.5 software packages. […] 1D ^1H spectra were recorded using a 1 s presaturation pulse with a B1 power of 200 Hz. […]

[5] = system: VPS35-VPS29 interaction / retromer; design: method as in PMID 24747528; conditions: cited from earlier work
[6] = system: Vps35, Vps26, and Vps29 mRNAs; design: method as in PMID 24747528; conditions: cited from earlier work

SMILES | VPS35 levels in SC extracts [1] | VPS35 levels [2] | accumulation of amyloid-β peptides and APP processing [3] | stability in NMR experimental conditions [4] | VPS35-VPS29 interaction [5] | VPS35 and VPS26 levels in cultured cells [5] | increase of VPS35 levels in cells [5] [%] | transcription levels of CRC genes [6]
N=C(N)SCc1cccc(CSC(=N)N)c1 [compound 4a] | slightly, but not significantly, increased | increased VPS35 levels | – | – | – | – | – | –
N=C(N)SCc1ccc(CSC(=N)N)s1 [R55/1] | – | increased | reduced the accumulation of amyloid-β (Aβ) peptides as well as APP processing | not stable | stabilizes the VPS35-VPS29 interaction | increases VPS35 and VPS26 levels | ~60 | did not influence
NC(N)=N/N=C/c1ccc(/C=N/N=C(N)N)s1 [compound 3a] | – | increased VPS35 levels | – | – | – | – | – | –
